Measurements as given in PMC11412489, “Coumarin derivatives as new anti-biofilm agents against Staphylococcus aureus” (PLOS ONE, 2024).
Where two headings read alike, the source gives them in different places.

Assays:
Assay type in all cases: cell-based, Staphylococcus aureus
[1] = system: biofilm of S. aureus ATCC 6538; assay: 96-well plate crystal violet assay for biofilm inhibition; details: for inhibition at 3.125 µg/mL / inhibition at 6.25 µg/mL / inhibition at 12.5 µg/mL / inhibition at 25 µg/mL / inhibition at 50 µg/mL / inhibition at 100 µg/mL: Staphylococcus aureus, ATCC6538
Experimental: The quantitative determination of biofilm inhibition was carried out by the crystal violet assay on a sterile 96-well plate with slight modifications. The glycerol stock of S. aureus was revived overnight at 37°C at 80 rpm. The overnight culture was then diluted 100 folds in fresh BHI broth, supplemented with 0.25% glucose. The cell density was adjusted to 1×10^7 and 195μL of the cell suspension was added in 96-well plate. […] Following that, the plate was washed with sterile distilled water in order to decant the non-adherent cells, and media. The plate was then dried at 60°C for 1 hour, and 200 μL of 0.1% (w/v) crystal violet was added to stain biofilm for 20 minutes. The plate was washed again, air dried, and dispensed 30% (v/v) acetic acid in each well to dissolve the biofilm. The inhibition of biofilm formation was analyzed by measuring the absorbance at 595 nm using the microplate reader (Multiskan Sky, Thermo Scientific, USA). The percent inhibition of biofilm formation was calculated via the following formula: 100−ƛTreated−ƛBlank/ƛControl−ƛBlank×100 Whereƛ=absorbance

S. aureus biofilm = assay: Atomic force microscopy analysis of biofilm disruption; details: compared to control S. aureus cells, 24 hours
Experimental: The size and structure of disrupted biofilm was analyzed. Briefly, a pure single colony of S. aureus was inoculated in BHI broth and grown for 18–24 hours at 37°C. Following incubation, the cells were diluted in BHI broth, and density was adjusted to 1×10^7 before loading on a sterile silicon chip placed in 24-well plate, then silicon chips were treated with active compounds. The plate was then sealed, and placed in an incubator for 24 hours at 37°C. After incubation, the treated silicon chips were washed with autoclaved distilled water thrice, air dried, and the samples were analyzed by atomic force microscope (Agilent Technologies, USA).

[2] = system: biofilm cells of the S. aureus strain (ATCC 6538); assay: Biofilm analysis by fluorescence microscopy (SYTO-9/PI); details: SYTO-9/PI staining, S. aureus ATCC 6538, 24 hours
Experimental: Briefly, 1×10^7 cells were loaded in 96-well plate, and treated with active compounds. Plate was sealed, and incubated for 24 hours at 37°C. Following incubation, plate was washed with sterile distilled water, and cells were stained with […] SYTO-9 and 5 μM PI, for 30 minutes in dark at room temperature. After incubation, the wells were washed again, and air dried. Images were taken, and then visualized by Nikon Eclipse TE2000, USA [23]. Propidium Iodide (PI) staining indicates membrane integrity, as it can only pass through compromised membranes of non-viable cells, giving red fluorescence. On the contrary, Syto-9 can pass through all cells despite of their membrane integrity, and binds to DNA/RNA by emitting green fluorescence.

S. aureus = assay: Antibacterial activity (bacterial growth inhibition); details: at 100 μg/mL
[3] = S. aureus ATCC 6538, replicate 1, read-out: % Inhibition 1
[4] = S. aureus ATCC 6538, replicate 2, read-out: % Inhibition 2
[5] = S. aureus ATCC 6538, replicate 3, read-out: % Inhibition 3
[6] = S. aureus ATCC 6538, read-out: Mean % Inhibition

O=c1oc2ccccc2cc1-c1csc(N/N=C/c2cc(Cl)cc(Br)c2)n1 [Compound 17, (E)-3-(2-(2-(3-Bromo-5-chlorobenzylidene)hydrazinyl)thiazol-4-yl)-2H-chromen-2-one]
inhibition at 3.125 µg/mL [1, 3]: 1.64% | inhibition at 3.125 µg/mL [1, 4]: 1.36% | inhibition at 3.125 µg/mL [1, 5]: 1.84% | inhibition at 3.125 µg/mL [1, 6]: 1.61% | inhibition at 6.25 µg/mL [1, 3]: 3.64% | inhibition at 6.25 µg/mL [1, 4]: 3.52% | inhibition at 6.25 µg/mL [1, 5]: 3.97% | inhibition at 6.25 µg/mL [1, 6]: 3.71% | inhibition at 12.5 µg/mL [1, 3]: 0.03% | inhibition at 12.5 µg/mL [1, 4]: 0.03% | inhibition at 12.5 µg/mL [1, 5]: 0.01% | inhibition at 12.5 µg/mL [1, 6]: 0.0233% | inhibition at 25 µg/mL [1, 3]: 15.9% | inhibition at 25 µg/mL [1, 4]: 15.1% | inhibition at 25 µg/mL [1, 5]: 16.9% | inhibition at 25 µg/mL [1, 6]: 15.9% | inhibition at 50 µg/mL [1, 3]: 55.1% | inhibition at 50 µg/mL [1, 4]: 53% | inhibition at 50 µg/mL [1, 5]: 57% | inhibition at 50 µg/mL [1, 6]: 55% | inhibition at 100 µg/mL ([1]; 100 µg/mL, S. aureus ATCC 6538, replicate 1, read-out: % Inhibition 1): 77.9% | inhibition at 100 µg/mL ([1]; 100 µg/mL, S. aureus ATCC 6538, replicate 2, read-out: % Inhibition 2): 77.6% | inhibition at 100 µg/mL ([1]; 100 µg/mL, S. aureus ATCC 6538, replicate 3, read-out: % Inhibition 3): 82.3% | inhibition at 100 µg/mL ([1]; 100 µg/mL, S. aureus ATCC 6538, read-out: Mean % Inhibition): 79.3% | inhibition at 100 µg/mL ([1]; at 100 μg/mL, biofilm of S. aureus, 24 hours, read-out: Antibiofilm Activity (% Inhibition ± SEM)): 69 ± 1.75% | Antibiofilm Activity (% Inhibition ± SEM) ([1]; at 100 μg/mL, biofilm of S. aureus, 24 hours): high potential to inhibit the biofilms | Biofilm disruption seen by AFM (S. aureus biofilm): Disrupted biofilm surfaces | Biofilm disruption seen by fluorescence microscopy [2]: Disruption on the surface of biofilm | inhibition at 100 µg/mL (S. aureus; Staphylococcus aureus, read-out: Antibacterial Activity (% Inhibition ± SEM)): 20 ± 4.64% | Antibacterial Activity (% Inhibition ± SEM) (S. aureus): low antibacterial effect
